The nature of the first data set: method code SF-AS, from DOI: 10.1021/jo01283a049.
Usually logP stands for the decadic logarithm of the partition coefficient of the neutral form, usually between octanol and water. Take `OCc1ccc2c(c1)OCO2`: the logP was determined as 1.05.

The compound `CN(C(N)=S)c1ccccc1` registered a logP of 0.85. For the compound `CCSCC`, the logP is 1.95.

For the compound `c1ccc2cnccc2c1`, the logP was 2.08.

Compound `CC12CCC(C(=O)C1=O)C2(C)C` (stereo not given) returned a logP of 1.52.

`CNC(=S)Nc1ccccc1` had a logP of 0.85.

The nature of another data set: method code SF-CR, from DOI: 10.1021/jo01283a049.
With `CCCC(N)=O`, the logP is -0.21.

Assay in a further data set: not given
`CCCCCF` registered a logP of 2.33.

In turn, `CCCBr` showed a logP of 2.1. Same read-out and setting: with `CCOC(=O)CC` the figure was 1.21.

(Values after the SangsterLogP compilation.)
